Measured values from patent US20210355121A1, “FUSED TRICYCLIC KRAS INHIBITORS” (Incyte Corporation, priority 2020, published 2021).
Like-named read-outs stand apart in the source and are kept apart here.

What was measured:
KRAS G12C = KRAS G12C (Homo sapiens, UniProt P01116, G12C); test: KRAS G12C GDP-GTP exchange assay (bodipy-GDP for GppNHp, with SOS1); assay type: biochemical; settings: 2.5 nM bodipy-loaded KRAS G12C, 2 hours pre-incubation with inhibitor, 2 hours after GppNHp-SOS1; read-out: G12C_exchange (KRAS_G12C exchange assay IC50)
Experimental: The inhibitor potency of the exemplified compounds was determined in a fluorescence based guanine nucleotide exchange assay, which measures the exchange of bodipy-GDP (fluorescently labeled GDP) for GppNHp (Non-hydrolyzable GTP analog) to generate the active state of KRAS in the presence of SOS1 (guanine nucleotide exchange factor). Inhibitors were serially diluted in DMSO and a volume of 0.1 μL was transferred to the wells of a black low volume 384-well plate. 5 μL/well volume of bodipy-loaded KRAS G12C diluted to 5 nM in assay buffer (25 mM Hepes pH 7.5, 50 mM NaCl, 10 mM MgCl2 and 0.01% Brij-35) was added to the plate and pre-incubated with inhibitor for 2 hours at ambient temperature. Appropriate controls (enzyme with no inhibitor or with a G12C inhibitor (AMG-510)) were included on the plate. The exchange was initiated by the addition of a 5 μL/well volume containing 1 mM GppNHp and 300 nM SOS1 in assay buffer. The 10 μL/well reaction concentration of the bodipy-loaded KRAS G12C, GppNHp, and SOS1 were 2.5 nM, 500 uM, and 150 nM, respectively. The reaction plates were incubated at ambient temperature for 2 hours, a time estimated for complete GDP-GTP exchange in the absence of inhibitor. For the KRAS G12D and G12V mutants, similar guanine nucleotide exchange assays were used with 2.5 nM as final concentration for the bodipy loaded KRAS proteins and with 4 hours and 3 hours incubation after adding GppNHp-SOS1 mixture for G12D and G12V respectively. A cyclic peptide described to selectively bind G12D mutant (Sakamoto et al., BBRC 484.3 (2017), 605-611) or internal compounds with confirmed binding were used as positive controls in the assay plates. Fluorescence intensities were measured on a PheraStar plate reader instrument (BMG Labtech) with excitation at 485 nm and emission at 520 nm.
Either GraphPad prism or XLfit was used to analyze the data. The IC50 values were derived by fitting the data to a four parameter logistic equation producing a sigmoidal dose-response curve with a variable Hill coefficient. Prism equation: Y=Bottom+(Top−Bottom)/(1+10^((Log IC50−X)*Hill slope)); XLfit equation: Y=(A+((B−A)/(1+((X/C)^D)))) where X is the logarithm of inhibitor concentration and Y is the response.

[1] = test system: MIA PaCa-2 (KRAS G12C) cells; test: KRAS_G12C cellular pERK HTRF assay; assay type: cell-based, human; settings: phospho-ERK1/2 HTRF, 4 hours incubation, read-out: G12C_pERK (KRAS_G12C pERK assay IC50)
Experimental: MIA PaCa-2 (KRAS G12C; ATCC® CRL-1420), A427 (KRAS G12D; ATCC® HTB53), HPAF-II (KRAS G12D; ATCC® CRL-1997) and NCI-H838 (KRAS WT; ATCC® CRL-5844) cells are purchased from ATCC and maintained in RPMI 1640 media supplemented with 10% FBS (Gibco/Life Technologies). The cells are plated at 5000 cells per well (8 uL) into Greiner 384-well low volume, flat-bottom, tissue culture treated white plates and incubated overnight at 37° C., 5% CO2. The next morning, test compound stock solutions are diluted in media at 3× the final concentration, and 4 uL are added to the cells. The plate is mixed by gentle rotation for 30 seconds (250 rpm) at room temperature. The cells are incubated with the KRAS G12C and G12D compounds for 4 hours or 2 hours respectively at 37° C., 5% CO2.
4 uL of 4× lysis buffer with blocking reagent (1:25) (Cisbio) are added to each well and plates are rotated gently (300 rpm) for 30 minutes at room temperature. 4 uL per well of Cisbio anti Phospho-ERK 1/2 d2 is mixed with anti Phospho-ERK 1/2 Cryptate (1:1) are added to each well, mixed by rotation and incubated overnight in the dark at room temperature. Plates are read on the Pherastar plate reader at 665 nm and 620 nm wavelengths. IC50 determination is performed by fitting the curve of inhibitor percent inhibition versus the log of the inhibitor concentration using the GraphPad Prism 7 software.

Sequence of KRAS G12C (P01116 1-188 isoform P01116-2 G12C): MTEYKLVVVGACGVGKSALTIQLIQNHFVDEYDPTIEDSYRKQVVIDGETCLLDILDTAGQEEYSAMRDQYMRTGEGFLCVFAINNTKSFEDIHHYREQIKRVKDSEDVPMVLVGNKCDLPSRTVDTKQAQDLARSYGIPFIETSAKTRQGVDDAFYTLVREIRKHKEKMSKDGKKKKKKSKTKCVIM

IC50 (KRAS G12C)	IC50 ([1]; Homo sapiens, MIA PaCa-2)	IC50 [1]	Compound
≤ 100 nM	≤ 100 nM	–	Cc1cc2[nH]ncc2c(-c2c(C)cc3c(nc(N4CC(C)(N(C)C)C4)c4cnn([C@H]5CCN(C(=O)/C=C/CN(C)C)[C@H](CC#N)C5)c43)c2F)c1C (single isomer, unassigned) [Example 66a]
≤ 100 nM	≤ 100 nM	–	C[C@H](Oc1nc2c(F)c(-c3cccc4cccc(Cl)c34)c(Cl)cc2c2c1cnn2[C@H]1CCN(C(=O)/C=C/CN(C)C)[C@H](CC#N)C1)[C@@H]1CCCN1C [Example 89, 2-((2S,4S)-4-(8-chloro-7-(8-chloronaphthalen-1-yl)-6-fluoro-4-((S)-1-((S)-1-methylpyrrolidin-2-yl)ethoxy)-1H-pyrazolo[4,3-c]quinolin-1-yl)-1-((E)-4-(dimethylamino)but-2-enoyl)piperidin-2-yl)acetonitrile]
≤ 100 nM	≤ 100 nM	–	Cc1c(Cl)cc2[nH]ncc2c1-c1c(Cl)cc2c(nc(OC[C@@H]3CCCN3C)c3cnn([C@H]4CCN(C(=O)/C=C/CN(C)C)[C@H](CC#N)C4)c32)c1F (single isomer, unassigned) [Example 17a]
≤ 100 nM	≤ 100 nM	–	CC#CC(=O)N1CC[C@H](n2ncc3c(OC[C@@H]4CCCN4C)nc4c(F)c(-c5cccc6cccc(C#N)c56)c(C)cc4c32)C[C@H]1CC#N (single isomer, unassigned) [Example 53a]
≤ 100 nM	≤ 100 nM	–	CN(C)C/C=C/C(=O)N1CC[C@H](n2ncc3c(N4CC(C)(N(C)C)C4)nc4c(F)c(-c5cccc6cccc(Cl)c56)c(Cl)cc4c32)C[C@H]1CC#N [Example 63, 2-((2S,4S)-4-(8-chloro-7-(8-chloronaphthalen-1-yl)-4-(3-(dimethylamino)-3-methylazetidin-1-yl)-6-fluoro-1H-pyrazolo[4,3-c]quinolin-1-yl)-1-((E)-4-(dimethylamino)but-2-enoyl)piperidin-2-yl)acetonitrile]
≤ 100 nM	≤ 100 nM	–	COC/C=C/C(=O)N1CC[C@H](n2ncc3c(O[C@@H](C)[C@@H]4CCCN4C)nc4c(F)c(-c5c(C)c(C)cc6[nH]ncc56)c(C)cc4c32)C[C@H]1CC#N (single isomer, unassigned) [Example 70b]
≤ 100 nM	≤ 100 nM	–	Cc1cc2[nH]ncc2c(-c2c(Cl)cc3c(nc(N4CC(N(C)C)C4)c4cnn([C@H]5CCN(C(=O)/C=C/CN(C)C)[C@H](CC#N)C5)c43)c2F)c1C (single isomer, unassigned) [Example 76a]
≤ 100 nM	–	≤ 100 nM	C=CC(=O)N1CC[C@H](n2ncc3c(N4CC(N(C)C)C4)nc4c(F)c(-c5c(C)c(Cl)cc6[nH]ncc56)c(Cl)cc4c32)C[C@H]1CC#N (single isomer, unassigned) [Example 3b]
≤ 100 nM	≤ 100 nM	–	Cc1cc2c(nc(OC[C@@H]3CCCN3C)c3cnn([C@H]4CCN(C(=O)/C=C/CF)[C@H](CC#N)C4)c32)c(F)c1-c1cccc2cccc(C#N)c12 (single isomer, unassigned) [Example 51a]
≤ 100 nM	≤ 100 nM	–	CC#CC(=O)N1CC[C@H](n2ncc3c(N4CC(N(C)C)C4)nc4c(F)c(-c5c(C)c(Cl)cc6[nH]ncc56)c(Cl)cc4c32)C[C@H]1CC#N (single isomer, unassigned) [Example 9a]
≤ 100 nM	≤ 100 nM	–	Cc1cc2[nH]ncc2c(-c2c(Cl)cc3c(nc(N4CC(C)(N(C)C)C4)c4cnn([C@H]5CCN(C(=O)/C=C/CN(C)C)[C@H](CC#N)C5)c43)c2F)c1C (single isomer, unassigned) [Example 84a]
≤ 100 nM	≤ 100 nM	–	Cc1c(Cl)cc2[nH]ncc2c1-c1c(Cl)cc2c(nc(N3CC(N(C)C)C3)c3cnn([C@H]4CCN(C(=O)/C=C/CN(C)C)[C@H](CC#N)C4)c32)c1F (single isomer, unassigned) [Example 4a]
≤ 100 nM	≤ 100 nM	–	COC/C=C/C(=O)N1CC[C@H](n2ncc3c(OC[C@@H]4CCCN4C)nc4c(F)c(-c5c(C)c(C)cc6[nH]ncc56)c(Cl)cc4c32)C[C@H]1CC#N (single isomer, unassigned) [Example 79a]
≤ 100 nM	≤ 100 nM	–	Cc1cc2c(nc(N3CC(C)(N(C)C)C3)c3cnn([C@H]4CCN(C(=O)/C=C/CF)[C@H](CC#N)C4)c32)c(F)c1-c1cccc2cccc(C#N)c12 (single isomer, unassigned) [Example 58a]
≤ 100 nM	≤ 100 nM	–	Cc1c(Cl)cc2[nH]ncc2c1-c1c(Cl)cc2c(nc(N3CC(N(C)C)C3)c3cnn([C@H]4CCN(C(=O)/C=C/C(F)F)[C@H](CC#N)C4)c32)c1F (single isomer, unassigned) [Example 7a]
≤ 100 nM	≤ 100 nM	–	Cc1cc2[nH]ncc2c(-c2c(C)cc3c(nc(N4CC(C)(N(C)C)C4)c4cnn([C@H]5CCN(C(=O)/C=C/CF)[C@H](CC#N)C5)c43)c2F)c1C (single isomer, unassigned) [Example 64a]
≤ 100 nM	≤ 100 nM	–	CC#CC(=O)N1CC[C@H](n2ncc3c(OC[C@@H]4CCCN4C)nc4c(F)c(-c5c(C)c(Cl)cc6[nH]ncc56)c(Cl)cc4c32)C[C@H]1CC#N (single isomer, unassigned) [Example 18a]
≤ 100 nM	≤ 100 nM	–	C=CC(=O)N1CC[C@H](n2ncc3c(N4CC(C)(N(C)C)C4)nc4c(F)c(-c5c(C)c(Cl)cc6[nH]ncc56)c(Cl)cc4c32)C[C@H]1CC#N (single isomer, unassigned) [Example 16a]
≤ 100 nM	≤ 100 nM	–	C=C(F)C(=O)N1CC[C@H](n2ncc3c(N4CC(C)(N(C)C)C4)nc4c(F)c(-c5cccc6cccc(C#N)c56)c(C)cc4c32)C[C@H]1CC#N (single isomer, unassigned) [Example 59a]
≤ 100 nM	≤ 100 nM	–	C=CC(=O)N1CCC(n2ncc3c(N4CC(N(C)C)C4)nc4c(F)c(-c5cc(O)cc6ccccc56)c(Cl)cc4c32)CC1 [Example 2, 1-(4-(8-chloro-4-(3-(dimethylamino)azetidin-1-yl)-6-fluoro-7-(3-hydroxynaphthalen-1-yl)-1H-pyrazolo[4,3-c]quinolin-1-yl)piperidin-1-yl)prop-2-en-1-one]
≤ 100 nM	≤ 100 nM	–	C=CC(=O)N1CC[C@H](n2ncc3c(OC[C@@H]4CCCN4C)nc4c(F)c(-c5c(C)c(Cl)cc6[nH]ncc56)c(Cl)cc4c32)C[C@H]1CC#N (single isomer, unassigned) [Example 20a]
≤ 100 nM	≤ 100 nM	–	Cc1c(Cl)cc2[nH]ncc2c1-c1c(Cl)cc2c(nc(N3CC(N(C)C)C3)c3cnn([C@H]4CCN(C(=O)/C=C/CF)[C@H](CC#N)C4)c32)c1F (single isomer, unassigned) [Example 6a]
≤ 100 nM	≤ 100 nM	–	C=C(F)C(=O)N1CC[C@H](n2ncc3c(N4CC(N(C)C)C4)nc4c(F)c(-c5c(C)c(C)cc6[nH]ncc56)c(Cl)cc4c32)C[C@H]1CC#N (single isomer, unassigned) [Example 73a]
≤ 100 nM	≤ 100 nM	–	C=C(F)C(=O)N1CC[C@H](n2ncc3c(O[C@@H](C)[C@@H]4CCCN4C)nc4c(F)c(-c5c(C)c(C)cc6[nH]ncc56)c(C)cc4c32)C[C@H]1CC#N (single isomer, unassigned) [Example 68b]
